According to US20040171566A1, “Antisense modulation of p38 mitogen activated protein kinase expression” (priority 1999, published 2004):
In the oligonucleotide strings, read from the 5' end, every base follows the letter of its sugar. An asterisk marks phosphorothioate; unmarked linkages are phosphodiester. Other units and linkages are bracketed, terminal groups are in braces. A string of capitals states the bases alone. e = 2'-O-(2-methoxyethyl) (MOE); [5mC] = 5-methylcytosine; d = 2'-deoxy (DNA)

Assays:
Type in all cases: cell-based
[1] = system: mouse p38β mRNA; test: Inhibition of mouse p38β mRNA expression in bEND.3 cells, Northern blot
Protocol: (§1) bEND.3, a mouse endothelial cell line (gift of Dr. Werner Risau; see Montesano et al., Cell, 1990, 62, 435, and Stepkowski et al., J. Immunol., 1994, 153, 5336) were grown in high-glucose DMEM (Life Technologies, Gaithersburg, Md.) medium containing 10% fetal bovine serum (FBS) and 1% Penicillin/Streptomycinin. Cells were plated at approximately 2×10^5 cells per 100 mm dish. Within 48 hours of plating, the cells were washed with phosphate-buffered saline (Life Technologies). Then, Opti-MEM7 medium containing 3 μg/mL LIPOFECTIN^7 and an appropriate amount of oligonucleotide were added to the cells. As a control, cells were treated with LIPOFECTIN^7 without oligonucleotide under the same conditions and for the same times as the oligonucleotide-treated samples.
(§2) After 4 hours at 37° C., the medium was replaced with high glucose DMEM medium containing 10% FBS and 1% Penicillin/Streptomycinin. The cells were typically allowed to recover overnight (about 18 to 24 hours) before RNA and/or protein assays were performed as described in Example 2. The p38α, p38β and G3PDH probes used were identical to those described in Example 2.
(§3) Rat p38α antisense oligonucleotides were screened in bEND.3 cells for inhibition of p38α and p38β mRNA expression. The concentration of oligonucleotide used was 100 nM. Oligonucleotides 21844 (SEQ ID NO. 47), 21845 (SEQ ID NO. 48), 21872 (SEQ ID NO. 51), 21873 (SEQ ID NO. 52), 21875 (SEQ ID NO. 54), and 21876 (SEQ ID NO.
(§4) Mouse p38β antisense sequences were screened in bEND.3 cells as described in Example 4.

[2] = system: rat p38α mRNA; test: Inhibition of rat p38α mRNA expression in A-10 cells, Northern blot; conditions: Rat A-10 cells, 200 nM oligonucleotide, 24 hours
Protocol: Rat p38α antisense oligonucleotides were screened in Rat A-10 cells. A-10 cells (American Type Culture Collection, Manassas, Va.) were grown in high-glucose DMEM (Life Technologies, Gaithersburg, Md.) medium containing 10% fetal calf serum (FCS). Cells were treated with oligonucleotide as described in Example 2. Oligonucleotide concentration was 200 nM. mRNA was isolated 24 hours after time zero and quantitated by Northern blot as described in Example 2.

[3] = system: mouse p38α mRNA; test: Inhibition of mouse p38α mRNA expression in bEND.3 cells, Northern blot
Protocol: as §1, §2, §3, §4

[4] = system: IL-6 secretion; test: IL-6 secretion by IL-1 stimulated bEND.3 cells, ELISA; conditions: 48 hours after oligonucleotide
Protocol: p38 MAPK antisense oligonucleotides were tested for their ability to reduce IL-6 secretion. bEND.3 cells were cultured and treated as described in Example 4 except that 48 hours after oligonucleotide treatment, cells were stimulated for 6 hours with 1 ng/mL recombinant mouse IL-1 (R&D Systems, Minneapolis, Minn.). IL-6 was measured in the medium using an IL-6 ELISA kit (Endogen Inc., Woburn, Mass.).

[5] = system: mouse p38α mRNA; test: Mouse p38α mRNA levels in bEND.3 cells, quantitative real-time PCR; conditions: mouse bEND.3 cells, at 50 nM
Method in brief: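 Mouse bEND.3 cells, antisense oligonucleotide-treated; p38α mRNA measured by one-step real-time RT-PCR (RT 30 min at 48 °C, then 40 cycles) with a FAM/TAMRA probe. Levels normalized to GAPDH or RiboGreen total RNA, and percent inhibition derived from standard curves of untreated-control mRNA.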

[6] = 100 nM rat p38α antisense oligonucleotide
[7] = DOSE 100, 1 ng/mL mouse IL-1 for 6 hours

Substance | % p38β mRNA Inhibition [1, 6] | % p38α mRNA EXPRESSION [2] | % p38α mRNA INHIBITION ([3]; dose 25 nM) | % p38α mRNA INHIBITION ([3]; dose 100 nM (dose response)) | % p38β mRNA Inhibition ([1]; dose 25 nM) | % p38β mRNA Inhibition ([1]; dose 100 nM (dose response)) | also measured
AoGoGoCoTsAsGsAsGsCsCsCsAsGsGsAoGoCoCoA (antisense eAeGeGe[5mC]eT*dA*dG*dA*dG*d[5mC]*d[5mC]*d[5mC]*dA*dG*dG*eAeGe[5mC]e[5mC]eA) [ISIS 21876] | minimal effects | 61% |  |  |  |  | % p38α mRNA INHIBITION [2]: 39%
AoGoGoToGsCsTsCsAsGsGsAsCsTsCsCoAoToToT (antisense eAeGeGeTeG*d[5mC]*dT*d[5mC]*dA*dG*dG*dA*d[5mC]*dT*d[5mC]*e[5mC]eAeTeTeT) [ISIS 21873] |  | 19% | 54% | 92% | 28% | 25% | % p38β mRNA Inhibition ([1]; dose 1 nM): 53%; % p38β mRNA Inhibition ([1]; dose 5 nM): 31%; % IL-6 INHIBITION [4, 7]: 49%; reduction of p38α mRNA [5]: > 70%
CoAoToCoAsTsCsAsGsGsGsTsCsGsTsGoGoToAoC (antisense e[5mC]eAeTe[5mC]eA*dT*d[5mC]*dA*dG*dG*dG*dT*d[5mC]*dG*dT*eGeGeTeAe[5mC]) [ISIS 21871] |  | 12% | 34% | 89% | 24% | 56% | % p38α mRNA INHIBITION ([3]; dose 1 nM): 1%; % p38α mRNA INHIBITION ([3]; dose 5 nM): 23%; % p38β mRNA Inhibition ([1]; dose 5 nM): 4%; % IL-6 INHIBITION ([4]; DOSE 200, 1 ng/mL mouse IL-1 for 6 hours): 23%
CoToGoCoGsAsCsAsTsTsTsTsCsCsAsGoCoGoGoC (antisense e[5mC]eTeGe[5mC]eG*dA*d[5mC]*dA*dT*dT*dT*dT*d[5mC]*d[5mC]*dA*eGe[5mC]eGeGe[5mC]) [ISIS 21844] |  | 75% | 36% | 80% | 8% | 5% | % p38α mRNA INHIBITION [2]: 25%
GoAoGoCoAsGsGsCsAsGsAsCsTsGsCsCoAoAoGoG (antisense eGeAeGe[5mC]eA*dG*dG*d[5mC]*dA*dG*dA*d[5mC]*dT*dG*d[5mC]*e[5mC]eAeAeGeG) [ISIS 21875] | minimal effects | 26% | 33% | 72% | 2% | 4% | % p38β mRNA Inhibition ([1]; dose 1 nM): 11%; % p38β mRNA Inhibition ([1]; dose 5 nM): 16%
GoAoGoCoCsTsGsTsGsCsCsTsGsGsCsAoCoToGoG (antisense eGeAeGe[5mC]e[5mC]*dT*dG*dT*dG*d[5mC]*d[5mC]*dT*dG*dG*d[5mC]*eAe[5mC]eTeGeG) [ISIS 21877] | 13% | 12% |  |  |  |  | % p38α mRNA INHIBITION [3, 6]: 55%
GoGoAoToGsGsAsCsAsGsAsAsCsAsGsAoAoGoCoA (antisense eGeGeAeTeG*dG*dA*d[5mC]*dA*dG*dA*dA*d[5mC]*dA*dG*eAeAeGe[5mC]eA) [ISIS 21874] | 21% | 22% |  |  |  |  | % p38α mRNA INHIBITION [3, 6]: 38%
GoGoCoAoCsAsAsAsGsCsTsAsAsTsGsAoCoToToC (antisense eGeGe[5mC]eAe[5mC]*dA*dA*dA*dG*d[5mC]*dT*dA*dA*dT*dG*eAe[5mC]eTeTe[5mC]) [ISIS 21872] |  | 13% | 35% | 76% |  | 1% | 
GoGoCoToAsCsCsAsTsGsAsGsTsGsAsGoAoAoGoA (antisense eGeGe[5mC]eTeA*d[5mC]*d[5mC]*dA*dT*dG*dA*dG*dT*dG*dA*eGeAeAeGeA) [ISIS 21879] |  | 11% |  |  |  |  | 
GoGoToAoAsGsCsTsTsCsTsGsAsCsAsCoToToCoA (antisense eGeGeTeAeA*dG*d[5mC]*dT*dT*d[5mC]*dT*dG*dA*d[5mC]*dA*e[5mC]eTeTe[5mC]eA) [ISIS 21845] |  | 25% |  |  |  |  | 
ToCoToToCsCsAsAsTsGsGsAsGsAsAsAoCoToGoG (antisense eTe[5mC]eTeTe[5mC]*d[5mC]*dA*dA*dT*dG*dG*dA*dG*dA*dA*eAe[5mC]eTeGeG) [ISIS 21881] |  | 31% |  |  |  |  | 
ToGoCoAoCsCsAsCsAsAsGsCsAsCsCsToGoGoAoG (antisense eTeGe[5mC]eAe[5mC]*d[5mC]*dA*d[5mC]*dA*dA*dG*d[5mC]*dA*d[5mC]*d[5mC]*eTeGeGeAeG) [ISIS 21878] | 10% | 35% |  |  |  |  | % p38α mRNA INHIBITION [3, 6]: 25%
ToToAoCoAsGsCsCsAsCsCsTsTsCsTsGoGoCoGoC (antisense eTeTeAe[5mC]eA*dG*d[5mC]*d[5mC]*dA*d[5mC]*d[5mC]*dT*dT*d[5mC]*dT*eGeGe[5mC]eGe[5mC]) [ISIS 100804] |  |  |  |  |  |  | % p38α mRNA INHIBITION ([3]; mouse p38β antisense oligonucleotides, screened as in Example 4): 18%; % IL-6 INHIBITION [4, 7]: 57%
